Test results taken from ChEMBL document CHEMBL5032530, “Discovery of Benzocyclic Sulfone Derivatives as Potent CXCR2 Antagonists for Cancer Immunotherapy” (J Med Chem, 2021).
Calls of active or inactive are those of the source. No cut-off for these calls is given here.

Columns and labels:
[1] = test system: Panc02; experiment: Cytotoxicity against mouse Panc02 cells assessed as reduction in cell viability measured after 72 hrs by CCK8 assay; format: cell-based; conditions: panc02, 72 h
[2] = molecular target: C-C chemokine receptor type 4 (Homo sapiens) (UniProt P51679); experiment: Antagonist activity against CCR4 (unknown origin) assessed as inhibition of beta-arrestin 2 recruitment at 10 microM by beta arrestin assay relative to control; format: functional; design: scale not given: the % may be the effect or the level left
Chain of C-C chemokine receptor type 4 (Homo sapiens) (P51679 whole entry): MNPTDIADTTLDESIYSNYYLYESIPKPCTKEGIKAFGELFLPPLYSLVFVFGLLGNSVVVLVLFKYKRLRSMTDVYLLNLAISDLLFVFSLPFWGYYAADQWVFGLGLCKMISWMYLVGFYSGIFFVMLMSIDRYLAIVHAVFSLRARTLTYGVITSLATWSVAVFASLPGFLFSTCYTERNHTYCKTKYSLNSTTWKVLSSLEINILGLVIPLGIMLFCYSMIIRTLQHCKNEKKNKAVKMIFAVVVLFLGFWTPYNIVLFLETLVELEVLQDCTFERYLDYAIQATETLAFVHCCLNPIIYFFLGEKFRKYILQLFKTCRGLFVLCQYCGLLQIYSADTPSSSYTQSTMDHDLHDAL

[3] = test system: Panc02; experiment: Antitumour activity against mouse Panc02 cells xenografted in mouse assessed as upregulation of infiltration of CD3+ T cell into tumor tissue treated po twice a day measured after 15 days by immunohistochemical analysis; format: functional, organism-based; conditions: dose 10-30 mg/kg, time 15.0 day
[4] = molecular target: C-X-C chemokine receptor type 1 (Homo sapiens) (UniProt P25024); experiment: Agonist activity against CXCR1 (unknown origin) assessed as induction of beta-arrestin 2 recruitment at 10 microM by beta arrestin assay relative to control; format: functional
Chain of C-X-C chemokine receptor type 1 (Homo sapiens) (P25024 whole entry): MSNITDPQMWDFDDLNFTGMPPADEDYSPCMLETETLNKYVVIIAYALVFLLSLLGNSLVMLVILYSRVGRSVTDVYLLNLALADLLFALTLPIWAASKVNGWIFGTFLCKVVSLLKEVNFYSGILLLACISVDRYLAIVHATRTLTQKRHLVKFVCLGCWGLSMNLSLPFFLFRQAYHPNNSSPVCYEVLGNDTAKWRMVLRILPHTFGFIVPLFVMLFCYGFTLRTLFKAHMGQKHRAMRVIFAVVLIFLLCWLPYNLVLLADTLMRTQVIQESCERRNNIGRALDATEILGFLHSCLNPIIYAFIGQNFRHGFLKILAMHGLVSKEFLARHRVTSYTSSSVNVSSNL

[5] = molecular target: C-X-C chemokine receptor type 4 (Homo sapiens) (UniProt P61073); experiment: Agonist activity against CXCR4 (unknown origin) assessed as induction of beta-arrestin 2 recruitment at 10 microM by beta arrestin assay relative to control; format: functional
Chain of C-X-C chemokine receptor type 4 (Homo sapiens) (P61073 whole entry): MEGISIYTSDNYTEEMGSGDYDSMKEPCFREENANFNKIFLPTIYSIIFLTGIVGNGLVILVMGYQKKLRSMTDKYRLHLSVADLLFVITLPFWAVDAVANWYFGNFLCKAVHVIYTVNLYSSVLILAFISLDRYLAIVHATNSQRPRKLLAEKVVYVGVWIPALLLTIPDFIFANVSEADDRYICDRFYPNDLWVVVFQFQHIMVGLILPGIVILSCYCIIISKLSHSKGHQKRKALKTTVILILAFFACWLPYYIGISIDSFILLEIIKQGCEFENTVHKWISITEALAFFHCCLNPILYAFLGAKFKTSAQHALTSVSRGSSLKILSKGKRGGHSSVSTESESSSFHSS

[6] = test system: Panc02; experiment: Antitumour activity against mouse Panc02 cells xenografted in mouse assessed as change in CD45 expressing immune cells infiltration into tumor tissue at 30 mg/kg, po bid measured after 15 days by flow cytometry analysis (reference value: 2.3%); format: functional; conditions: time 15 day
[7] = molecular target: C-X-C chemokine receptor type 3 (Homo sapiens) (UniProt P49682); experiment: Agonist activity against CXCR3 (unknown origin) assessed as induction of beta-arrestin 2 recruitment at 10 microM by beta arrestin assay relative to control; format: functional
Chain of C-X-C chemokine receptor type 3 (Homo sapiens) (P49682 whole entry): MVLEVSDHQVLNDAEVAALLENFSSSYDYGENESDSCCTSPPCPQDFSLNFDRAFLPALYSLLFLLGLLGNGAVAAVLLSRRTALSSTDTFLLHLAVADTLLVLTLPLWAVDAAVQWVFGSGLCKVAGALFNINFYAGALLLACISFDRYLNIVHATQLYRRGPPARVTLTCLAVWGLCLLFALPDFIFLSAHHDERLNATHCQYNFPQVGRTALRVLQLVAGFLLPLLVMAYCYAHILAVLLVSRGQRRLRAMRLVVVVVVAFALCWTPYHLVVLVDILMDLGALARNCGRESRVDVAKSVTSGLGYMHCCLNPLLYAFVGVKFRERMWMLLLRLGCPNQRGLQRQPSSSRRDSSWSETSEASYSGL

[8] = Half life in ICR mouse at 30 mg/kg, po measured upto 48 hrs; format: ADME, organism-based; conditions: ICR, in vivo
[9] = test system: Panc02; experiment: Antitumour activity against mouse Panc02 cells xenografted in mouse assessed as change in Gr1 expressing immune cells infiltration into tumor tissue at 30 mg/kg, po bid measured after 15 days by flow cytometry analysis (reference value: 27.4%); format: functional; conditions: time 15 day
[10] = molecular target: C-C chemokine receptor type 9 (Homo sapiens) (UniProt P51686); experiment: Agonist activity against CCR9 (unknown origin) assessed as induction of beta-arrestin 2 recruitment at 10 microM by beta arrestin assay relative to control; format: functional
Chain of C-C chemokine receptor type 9 (Homo sapiens) (P51686 whole entry): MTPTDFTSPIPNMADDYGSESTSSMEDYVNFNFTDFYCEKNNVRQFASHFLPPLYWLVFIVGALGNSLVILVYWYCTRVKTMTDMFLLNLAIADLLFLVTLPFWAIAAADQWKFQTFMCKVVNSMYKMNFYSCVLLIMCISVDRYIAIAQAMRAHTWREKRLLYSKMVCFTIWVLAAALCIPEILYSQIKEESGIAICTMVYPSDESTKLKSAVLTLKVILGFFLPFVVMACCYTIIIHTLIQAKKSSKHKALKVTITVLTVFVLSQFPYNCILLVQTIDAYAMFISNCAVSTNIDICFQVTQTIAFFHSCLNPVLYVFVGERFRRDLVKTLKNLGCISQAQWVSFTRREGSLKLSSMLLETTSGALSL

[11] = test system: Panc02; experiment: Antitumour activity against mouse Panc02 cells xenografted in mouse assessed as change in CD11b expressing immune cells infiltration into tumor tissue using LY6G antibody at 10 mg/kg, po bid measured after 15 days by flow cytometry analysis (reference value: 29.7%); format: functional; conditions: time 15 day
[12] = test system: Panc02; experiment: Antitumour activity against mouse Panc02 cells xenografted in mouse assessed as reduction in infiltration of granulocytic MDSCs into tumor tissue at 3 mg/kg, po bid measured after 15 days by flow cytometry analysis; format: functional, organism-based; conditions: time 15.0 day
[13] = Cmax in ICR mouse at 3 mg/kg, iv measured upto 48 hrs; format: ADME, organism-based; design: route intravenous, dose 3 mg/kg, time <=48; conditions: in vivo
[14] = Apparent volume of distribution in ICR mouse at 30 mg/kg, po measured upto 48 hrs; format: ADME, organism-based; conditions: in vivo
[15] = molecular target: C-C chemokine receptor type 8 (Homo sapiens) (UniProt P51685); experiment: Agonist activity against CCR8 (unknown origin) assessed as induction of beta-arrestin 2 recruitment at 10 microM by beta arrestin assay relative to control; format: functional
Chain of C-C chemokine receptor type 8 (Homo sapiens) (P51685 whole entry): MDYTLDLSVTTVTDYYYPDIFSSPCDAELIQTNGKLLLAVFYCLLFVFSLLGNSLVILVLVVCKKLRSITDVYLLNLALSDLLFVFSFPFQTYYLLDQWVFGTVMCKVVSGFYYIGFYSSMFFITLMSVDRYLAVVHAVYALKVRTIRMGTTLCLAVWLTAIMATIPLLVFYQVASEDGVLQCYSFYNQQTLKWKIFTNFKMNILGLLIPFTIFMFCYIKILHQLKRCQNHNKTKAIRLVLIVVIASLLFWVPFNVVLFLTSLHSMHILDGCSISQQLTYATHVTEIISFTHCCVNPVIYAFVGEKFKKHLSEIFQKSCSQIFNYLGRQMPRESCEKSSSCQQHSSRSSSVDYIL

[16] = Clearance in ICR mouse at 3 mg/kg, iv measured upto 48 hrs; format: ADME, organism-based; conditions: in vivo
[17] = Half life in ICR mouse at 3 mg/kg, iv measured upto 48 hrs; format: ADME, organism-based; conditions: in vivo
[18] = molecular target: C-X-C chemokine receptor type 5 (Homo sapiens) (UniProt P32302); experiment: Antagonist activity against CXCR5 (unknown origin) assessed as inhibition of beta-arrestin 2 recruitment at 10 microM by beta arrestin assay relative to control; format: functional; design: scale not given: the % may be the effect or the level left
Chain of C-X-C chemokine receptor type 5 (Homo sapiens) (P32302 whole entry): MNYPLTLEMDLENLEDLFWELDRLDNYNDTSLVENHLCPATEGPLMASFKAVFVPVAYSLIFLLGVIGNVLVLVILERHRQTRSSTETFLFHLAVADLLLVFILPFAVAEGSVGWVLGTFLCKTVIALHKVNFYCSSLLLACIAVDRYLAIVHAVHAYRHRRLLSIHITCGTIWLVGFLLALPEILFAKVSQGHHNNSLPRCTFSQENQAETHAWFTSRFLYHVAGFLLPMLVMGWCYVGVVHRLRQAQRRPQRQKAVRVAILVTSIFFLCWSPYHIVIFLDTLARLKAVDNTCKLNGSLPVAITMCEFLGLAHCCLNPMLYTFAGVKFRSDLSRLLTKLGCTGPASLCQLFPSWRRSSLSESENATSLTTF

Cc1c(F)cccc1NC(=O)Nc1ccc2c(c1O)S(=O)(=O)CCC2
Activity [1]: Non-Toxic | Activity [2]: 10% | Activity [3]: Dose-Dependent Effect | Activity [4]: < 10% | Activity [5]: < 10% | Activity [6]: 42.3% | Activity [7]: < 10% | half-life [8]: 4.94 h | Activity [9]: 7.5% | Activity [10]: < 10% | Activity [11]: 14% | Activity [12]: Active | Cmax [13]: 873 ng/mL | Vz [14]: 939.87 L/kg | Activity [15]: < 10% | clearance [16]: 137 mL/min/kg | half-life [17]: 4.11 h | Activity [18]: 11%
